The values that follow come from US20260007652A1, “Selective Modulators of AhR-Regulated Transcription and Method for Using Such Modulators to Treat Cancer” (OREGON STATE UNIVERSITY, priority 2022, published 2026).

Data set [1] relates to HepG2 cells. The experiment in a line: Colony forming assay, HepG2 cells. Particulars: alone. The format is cell-based, human. On the procedure:
FIGS. 75A-75C compare the effects of 11-Cl-BBQ and Evoxine in hepatoma: A) Mouse Hepa-1 cells were treated with 11-Cl-BBQ, Evoxine either alone or in combination for 48 hours before assessing cell viability using Cell-Titer Glo Viability Assay. B) Hepa-1 cells treated with Evoxine, 11-Cl-BBQ either alone or in combination for 48 hours with induction of cell death measured by Annexin-V staining and detection by flow cytometry. C) Colony forming assay of HepG2 human hepatocellular carcinoma cells seeded at 300 cell/well in a 24-well plate before treatment with 11-Cl-BBQ, Evoxine either alone or in combination at the indicated concentrations for two weeks, followed by fixation and staining with methylene blue. Quantitation of colonies is shown on the right.
Cells were seeded at a density of 500 cell/well in triplicate in 6-well plates, and the following day, cells were treated with compounds and allowed to incubate for 2-3 weeks before fixation with 50% ethanol/water solution containing 0.1% methylene blue overnight. Colonies were counted manually, or with OpenCFU colony counting software, Images were acquired on a ChemiDoc imaging instrument.

The test system of data set [2] is H460 cells. The experiment in a line: Senescence-associated beta-galactosidase staining, H460 cells. The format is cell-based, human. The procedure:
H460 cells were seeded at 2×10^5 cells/well in 6-well plate overnight and treated with indicated compounds for 5 days. Media and treatments were refreshed on the […]. Cells were stained for senescence-associated β-galactosidase (SA-βgal) using 5-dodecanoylaminofluorescein di-β-D-galactopyranoside (C12FDG). Briefly, media were aspirated and replaced with fresh media containing 0.1 μM bafilomycin A1 (Calbiochem) and incubated for 1 hour in cell culture incubator. C12FDG (Setare Biotech) was added with a final concentration of 33 μM and incubated for another hour. Fluorescent signal was recorded using CytoFlex S cytometer for 10,000 cells per sample.

Data set [3] relates to H460 cells. The experiment in a line: Colony forming assay, H460 cells. The format is cell-based, human. The settings on record: 0.1-10 µM, 14 days. The procedure: H460 cells were seeded in 6-well plates at a density of 200 cell per well in complete growth media. 11-Cl-BBQ or DMSO were added the following day as indicated concentrations for two weeks in 1% FBS RMPI media, media and treatments were replenished twice a week. Cell colonies were fixed and stained with methylene blue in 50% ethanol solution overnight. Pictures of cell colonies were captured using the ChemiDoc imaging instrument, and quantified using OpenCFU software.

For data set [4], the system named is lung cancer cells. Put plainly: Viability of lung cancer cell lines (CellTiter Glo). The class given is cell-based, human. Particulars: 10 nM to 10 μM, 72 hours. On the procedure:
Cancer cells were seeded in 96-well plates at a density of 3,000 cells per well in their optimal culture medium supplemented with 1% FBS overnight, then compounds were added at indicated concentrations and incubated for 72 hours; otherwise, different treatment times will be specified. Cell viability was measured using the ATP-based CellTiter Glo assay (Promega-Madison, WI) following the manufacturer's protocol. Luminescent signals were recorded using the Tropix TR717 microplate luminometer. The viability of cultures following each treatment was normalized to vehicle treatment (0.1% DMSO (v/v)).
A general note: Cellular ATP, detected with luciferase, serves as a proxy for viable cell number.

The test system of data set [5] is H460 cells. The experiment in a line: Annexin V staining, H460 cells. Particulars: 1 and 10 μM, 72 hours. The format is cell-based, human. The procedure:
[…] Cells were stained with Annexin-V-PerCP conjugates (eBioscience, Waltham, MA, USA) for 15 minutes on ice before washing out residual stain and resuspending in 300 μL of binding buffer. 10,000 events were collected per sample. Data was acquired with a CytoFLEX S flow cytometer (Beckman Coulter, Brea, CA), and analyzed using the CytExpert software (Beckman Coulter).

Data set [6] in a line: Dose studies in mice, serum concentration. The format is in vivo, mouse.
For data set [7], the system named is p53. The experiment in a line: Western blot of p53 protein levels in H460 cells. The format is cell-based, human. The procedure: Whole cell lysate was prepared in RIPA lysis buffer with 1× Laemmli buffer, then denatured by heating at 100° C. for 5 minutes. Denatured proteins were separated in SDS-PAGE gel and transferred onto PVDF membrane. The PVDF membrane was incubated in TBST with 5% nonfat dry milk for one hour at room temperature prior to incubating with primary antibody of interest overnight at 4° C. with gentle rotation. Appropriate horse radish peroxidase conjugated secondary antibody was applied for one hour at room temperature. Signal was developed by applying SuperSignal West Pico chemiluminescence substrate and captured using the ChemiDoc imaging instrument. Primary antibodies used in this study: anti-AHR antibody (BML-SA210-Enzo Biochem, Farmingdale, NY), anti-p27^Kip1 antibody (610242-BD Biosciences), anti-p53 antibody (DO-1 sc-126-Santa Cruz Biotechnology, Dallas, TX), anti-p21 antibody (2947S-Cell Signaling Technology, Danvers, MA), and anti-GAPDH antibody (sc-36502, Santa Cruz).
For orientation: In western blotting, separated proteins are transferred to a membrane and probed.

For data set [8], the system named is cancer cell line. Put plainly: Cell viability of combinations of AhR ligand and synergizer (FIGS. 51, 52). The class given is cell-based. Particulars: for cell viability, monotreatments: alone (FIG. 51); for cell viability, mono-applications: alone (FIG. 52). The procedure: FIG. 51 provides data from cancer cell line trials using 11-Cl-BBQ alone, Evoxine alone, Citropten alone, and combinations comprising 11-Cl-BBQ and Citropten and 11-Cl-BBQ and Evoxine. […] The decrease in cell viability was more than additive. Specifically, for Evoxine in combination with Analog 523, the reduction in cell viability was: 31% at 1 μM; 41% at 3 μM; and 42% at 10 μM. For Citropten in combination with Analog 523, the reduction in cell viability was: 16% at 1 μM; 34% at 3 μM; and 43% at 10

In data set [9] the test system is H460 cells. The experiment in a line: Cell cycle analysis, H460 cells. The class given is cell-based, human. Particulars: 2.5 μM, 24 hours. The procedure:
Cells were harvested by applying trypsin-EDTA then washed twice with phosphate-buffered saline (PBS) solution, fixed with 70% ethanol for 15 minutes at room temperature and kept at −20° C. overnight. Fixed samples were washed twice with PBS and stained with Hoechst 33258 (Invitrogen, Carlsbad, CA) at the final concentration of 1 μg/ml in the 0.1% Triton X-100/PBS for 20 minutes at room temperature. DNA content was analyzed by flow cytometer for 10,000 cells per sample, singlets population was selected for further analysis and cell cycle was assigned by fitting the DNA content into Dean-Jett-Fox model using FlowJo software.

Data set [10] has as its system MDA-MB-468 cells. Put plainly: Annexin-V apoptosis assay, MDA-MB-468 cells. The class given is cell-based, human. Particulars: alone. The procedure:
FIGS. 72A-72C presents the characterization of combinations on TNBC cell viability and cell death. Quantitation of Annexin-V staining of MDA-MB-468 cells treated with either 10 μM evoxine, 10 μM citropten, 0.25 μM 11-Cl-BBQ, or corresponding combinations for 72 hours (A and B, respectively). Quantifications represent averages of three independent experiments. C) Colony forming assay of MDA-MB-468 AhR-expressing and AhR KO cells treated with 100 nM Evoxine, 500 nM Citropten, […] 11-Cl-BBQ, or combinations of each compound with 11-Cl-BBQ.
Annexin-V staining was performed 48 hours post-treatment by harvesting cells (floating and attached) with trypsin, followed by addition of serum-containing media, and two washes with ice-cold PBS. Cells were stained with Annexin-V-PerCP conjugates (eBioscience, Waltham, MA, USA) for 15 minutes on ice before washing out residual stain and resuspending in 300 μL of binding buffer. 10,000 events were collected per sample. Data was acquired with a CytoFLEX S flow cytometer (Beckman Coulter, Brea, CA), and analyzed using the CytExpert software (Beckman Coulter).

The subject of data set [11] is H460 cells. Put plainly: Zebrafish tumor xenograft assay with pre-treated H460 cells. The format is in vivo. Particulars: cells exposed to 1 μM or 5 μM for 72 hours, washed out; days 1 and 4 post-injection; AhR-expressing cells. On the procedure: H460 AHR wildtype (CR-V2) and knockout (CR-AHR3) cells were treated with 11-Cl-BBQ (1 and 5 μM) or 0.1% DMSO as vehicle control for 72 hours in RPMI media supplemented with 1% FBS. Cells were trypsinized, dyed with cell viable dye CM-Di1 (Thermofisher), and micro-injected into zebrafish embryos. The growth cancer xenografts were monitored at one day and four days post injection. Zebrafish were housed at the Sinnhuber Aquatic Research Laboratory at Oregon State University (Corvallis, OR, USA), and experiments were conducted according to Institutional Animal Care and Use Committee protocols.

In data set [12] the test system is AhR. The experiment in a line: Xenobiotic response element (XRE) driven reporter in Hepa-1 cells, AhR activation. The format is cell-based, mouse. On the procedure: FIGS. 69A-69D show representative 11-Cl-BBQ analogs (848 and 849) as non-classical AHR ligands. (A) Stability of AHR protein in the H460 whole cell lysate in the presence or absence of 11-Cl-BBQ (5 μM), PRXS-848 (10 μM), and PRXS-849 (10 μM) at the indicated temperatures; GADPH was used as a loading control. (B) Localization of AHR protein in the H460 treated with 11-Cl-BBQ (100 nM), PRXS-848 (250 nM), PRXS-849 (250 nM), or vehicle control (0.1% DMSO) for two hours; top horizontal panel: AHR protein staining using an AHR-specific antibody conjugated with FITC (green) fluorophore; middle panel: DAPI staining; bottle panel: overlaid images from the top panel and the middle panel in the same column. (C) AHR activation (measured by XRE-luciferase reporter assay in Hepa1 cells) of the parental lead 11-Cl-BBQ and analogs PRXS-848 and PRXS-849 at the indicated concentrations for 16 hours. (D) AHR activation of 11-Cl-BBQ cotreated with a known AHR antagonist CH223191 (1 μM) or 11-Cl-BBQ analogs PRXS-848 and PRXS-849 at the indicated concentrations for 16 hours.
FIG. 76 presents representative AhR compounds (BBQ analogs) of the invention effective for activation of AhR transcription. Activation values greater than 1 at 100 nM were considered a hit with nanomolar affinity to promote AhR activity and synergize with the identified compounds from the synergy screens. Referring to FIG. 76, Fold@ 1 nM refers to activation of AhR transcription at 1 nM; Fold@100 nM refers to activation of AbR transcription at 100 nM; and Fold rel @ 100 refers to relative activation at 100 nM compared to parental compound, 11-Cl-BBQ. The representative AhR ligand compounds presented in FIG. 76 activate AhR transcription and therefore are useful as anti-cancer agents, either alone or in combination with the synergizing compounds (and chemotherapeutic agents) described herein.
was identified as a top hit compound based on its potent (>50% inhibition at 0.1 μM), and selective activity against AhR WT cells versus AhR KO cells (>70% difference between WT and KO cells at 10 μM) (FIG. 11). […] This confirmed Analog 523 activates AhR-mediated transcription and functions as an AhR ligand.

Bounds are passed on as bounds.

Consider `O=c1c2cccc3cccc(c32)c2nc3cc(Cl)ccc3n12` [Analog 11-Cl-BBQ], for which the HepG2 colony formation result in data set [1] (10 μM) is listed as “little effect on colony formation inhibition”. In data set [2] (2.5 μM for 120 h, AhR-dependent), the SA-β-gal expression entry is on record as “significant increase in SA-β-gal expression”. The “colony formation of AhR-expressing H460 cells” value in data set [3] is “strongly inhibited colony formation”. In data set [4], the “growth of lung cancer cells” value is reported as “decreased the growth of lung cancer cells in a dose-dependent manner”. Also, in data set [5], the “Annexin V staining (cell death)” value is listed as “negative for Annexin V staining”. Also, the “concentration detected in mouse serum” value in data set [6] (2 mg/Kg intravenous administration) was “up to 1.6 μM”; in data set [6] (8 mg/Kg oral administration), 3000 nM. Moreover, the p53 protein levels result in data set [7] (5 μM, from 4 h, further at 6 and 9 h) is recorded as “increased p53 protein levels”. Besides, the “cell viability, monotreatments” value in [8] is “little effect”. Moreover, the “cells in S-phase” value in data set [9] (vehicle 35%) is given as 15%. For the same molecule, the “cells in G1 phase” value in data set [9] (vehicle 45%) was more than 70%. Further, in data set [10] (0.25 μM), the “apoptotic response (Annexin-V staining)” value came to 7.3%. In addition, in data set [11], the “growth of cancer cell xenografts” value is recorded as “significantly lower growth”.

Turning to `COc1cc(OC)c2ccc(=O)oc2c1` [Citropten, citropten], in data set [8], the “cell viability, monotreatments” value is “little effect” and the “cell viability, mono-applications” value is on record as “largely ineffective in reducing cell viability”. The “apoptotic response (Annexin-V staining)” value in data set [10] (10 μM) was 2.7%.

In the case of `COc1c2ccoc2nc2c(OC)c(OC[C@@H](O)C(C)(C)O)ccc12` [Evoxine], the HepG2 colony formation entry in data set [1] (2.5 μM) was “little effect on colony formation inhibition”. In data set [8], the “cell viability, monotreatments” value is “little effect” and the “cell viability, mono-applications” value is “largely ineffective in reducing cell viability”. The “apoptotic response (Annexin-V staining)” value in data set [10] (10 μM) is 0.5%.

Consider `COC(=O)c1ccc2c(c1)nc(-c1cccc3ccccc13)n2C(=O)c1ccc(F)c(F)c1` [PRXS-848], for which the “activation of AhR transcription (FIG. 76)” value in data set [12] is recorded as “did not activate AhR”.

With `COC(=O)c1ccc2nc(-c3cccc4ccccc34)n(C(=O)c3ccc(F)c(F)c3)c2c1` [PRXS-849], the “activation of AhR transcription (FIG. 76)” value in [12] is “did not activate AhR”.

Take `Clc1cc2c(cc1Cl)Oc1cc(Cl)c(Cl)cc1O2` [TCDD, reference compound]: in data set [7] (TCDD 30 nM), the “expression of p53 protein” value is on record as “not altered”.

For `COc1cccc2c1C(=O)c1c(O)c3c(c(O)c1C2=O)C[C@@](O)(C(=O)CO)C[C@@H]3O[C@H]1C[C@H](N)[C@H](O)[C@H](C)O1` [doxorubicin, reference compound], the SA-β-gal expression entry in data set [2] (Dox 50 nM, 5 days) is “induced SA-β-gal expression independent of the AhR status”.
